Laboratory results taken from patent US8980845B2, “Biotechnological production of cyanophycin dipeptides” (Westfälische Wilhelms-Universität Münster, priority 2008, dated 2015).
Values joined by “and” are separate entries in the source; they are usually repeats but may differ in a detail not shown here. Equal values may be shown once. “Also recorded” adds a separate entry of the source. Read-outs that look alike come from different tables or passages of the source. Marks after values point to notes of the source that are not given here.

Assays:
[1] = test system: purified CphEal from P. alcaligenes strain DIP1; experiment: Effect of group-specific inhibitors on purified CphEal, HPLC analysis of CGP degradation products; format: biochemical; conditions: for HPLC analysis (Inhibition %) high inhibitor concentration: high concentration (mM): Leupeptin 0.01, EDTA 60, Pefabloc 80, PMSF 10, NBS 5; for HPLC analysis (Inhibition %) high inhibitor concentration / HPLC analysis (Inhibition %) low inhibitor concentration: 2 h at 30° C., refers to control without inhibitor; for HPLC analysis (Inhibition %) low inhibitor concentration: low concentration (mM): Leupeptin 0.001, EDTA 30, Pefabloc 8, PMSF 1, NBS 1
Experimental: (§1) To reveal the effect of enzyme inhibitors on the purified CphEal, 50 μl aliquots of the purified enzyme stalk solution were added to 450 μl of Na-phosphate buffer (50 mM) and incubated for 2 h at 30° C. in the presence of one of the following Group-specific inhibitors; Leupeptin (thiol-proteases), EDTA (metalloproteases), Pefabloc (serine-proteases), PMSF (serine-proteases) or N-bromosuccinimide (tryptophan residues).
(§2) To gain information on the catalytic mechanism of CphEal, inhibitor experiments were conducted employing different group-specific inhibitors (Table 1).

[2] = test system: purified CphEal from P. alcaligenes strain DIP1; experiment: Effect of group-specific inhibitors on purified CphEal, activity on CGP-overlay agar plates; format: biochemical; conditions: for Inhibition of CphEal (in words): assayed on CGP-overlay agar plates and by HPLC analysis
Experimental: as §1, §2

[3] = test system: P. alcaligenes strain DIP1; experiment: Induction of CphEal production in cultures of strain DIP1; format: cell-based
Experimental: The activity of the cyanophycinase (CphEal) was inspected by formation of degradation halos on CGP-overlay agar plates by small aliquots of concentrated enzyme solutions, for this, 5 ml culture samples were centrifuged at 2800×g for 30 min (Megafuge 1.0 R, Heraeus Sepatech GmbH, Osterode, Germany) and 4 ml of the resulting supernatant were concentrated 100 folds by ultrafiltration. For the quantitative determination of the enzyme in culture samples, a photometric method was developed as follows; 2 μl of the concentrated culture supernatant were added to 1 ml of a CGP suspension (100 mg l^−1) and incubated at 30° C. for 30 min in a tube rotator (3 rpm, type 502 S, Watson-Marlow GmbH, Rommerskirchen, Germany). Finally, OD600 nm of samples was measured to indicate the decrease in CGP amount due to degradation; this in turn was used to indicate the concentration of CphEal in solutions through the respective calibration curve.
To conclude the optimum cultivation conditions for maximum production of CphEal by strain DIP1, cells were cultivated on different concentrations of citrate under optimum growth conditions, when cells reached the stationary phase; CphEal production was induced by the addition of 0.25 g CGP.
During the following 5 h, supernatant samples were concentrated (100 folds) and screened for degradation activity on CGP-overlay agar plates as well as photometrically.
All inductors were tested first at a concentration of 0.25 g l^−1 and CphEal production was assayed on CGP-overlay agar plates and also photometrically.

[4] = test system: Caco2 cells (human-colon epithelial adenocarcinoma cells); experiment: Absorption of CGP dipeptides by Caco2-cell cultures; conditions: after 113 h of incubation; medium with 350 μg/ml CGP dipeptides (90% Asp-Arg: 10% Asp-Lys)
Experimental: (§3) A Dulbecco's Modified Eagle Medium (DMEM) containing 20% Fetal Calf Serum (FCS) and 1% of 2 mM Glutamine solution was used as cultivation medium. About 7000 Caco2 cells per well were disseminated in a 24-well plate and incubated at 37° C. under an atmosphere of 5% CO2 and about 98% humidity. The cells were checked microscopically on a daily basis until forming monolayer after nearly 50 h. […] A well line was supplied with fresh 700 μl of the incubation medium without the latter additives and was considered as control. Samples were taken after incubation periods of 0, 13, 22, 67 and 113 h and were analyzed by HPLC as described by Sallam and Steinbüchel (J. App. Microbiol. DOI: 10.1111/j.1365-2672.2009.04221.x) to determine the change of concentrations of the tested dipeptides and amino acids.

[5] = test system: Caco2 cells (human-colon epithelial adenocarcinoma cells); conditions: Caco-2, 113 h
Experimental: as §3

[6] = low dose intravenous (IV) infusion; cited from earlier work
[7] = 250 mg/kg/day oral for seven days, five healthy subjects aged 20 to 35; cited from earlier work
CGP = conditions: data from literature, cited from earlier work

Q: Which “HPLC analysis of inhibitor-treated samples (in words)” value [1] does the source give for O=C(O)CN(CCN(CC(=O)O)CC(=O)O)CC(=O)O [EDTA] here?
A: showed inhibition

Q: What about the “HPLC analysis (Inhibition %) high inhibitor concentration” value [1] of the same molecule?
A: 75^c %

Q: And the “HPLC analysis (Inhibition %) low inhibitor concentration” value [1]?
A: 65^c %

Q: What about the “Inhibition of the CGPase, HPLC analysis of samples treated with EDTA” value ([1]; stated to be due to precipitates during OPA-derivatization) of the same molecule?
A: about 75%

Q: And the “Formation of degradation halos by CphEal on CGP-overlay agar plates in presence of inhibitor” value [2]?
A: no activity inhibition; also recorded: not affected

Q: For N[C@@H](CC(=O)O)C(=O)O [L-aspartic acid], which “CphEal production after induction in comparison to cultures induced with optimum CGP concentration (0.05 g l^−1)” value ([3]; 4 g l^−1 aspartate, 5 h) is on record?
A: only the third

Q: What about the “Time after induction at which maximum CphEal production was obtained” value ([3]; at optimum inductor concentration) of the same molecule?
A: 5 h

Q: What about the “Inductor concentration giving maximum CphEal production” value ([3]; cultures of strain DIP1 under optimal production conditions) of the same molecule?
A: 4 g/L

Q: What about the “Induction of CphEal production” value ([3]; inductors tested at 0.25 g l^−1, CGP-overlay agar plates and photometrically) of the same molecule?
A: induced significant amounts

Q: Which results are given for CC(=O)N[C@@H](CC(C)C)C(=O)N[C@@H](CC(C)C)C(=O)N[C@H](C=O)CCCNC(=N)N [Leupeptin]?
A: HPLC analysis (Inhibition %) high inhibitor concentration [1]: 39%; HPLC analysis (Inhibition %) low inhibitor concentration [1]: 10%; Formation of degradation halos by CphEal on CGP-overlay agar plates in presence of inhibitor [2]: no activity inhibition; Formation of degradation halos by CphEal on CGP-overlay agar plates in presence of inhibitor ([2]; listed as leupeptin): not affected

Q: Which “HPLC analysis (Inhibition %) high inhibitor concentration” value [1] does the source give for O=C1CCC(=O)N1Br [NBS, N-bromosuccinimide] here?
A: 100%

Q: What about the “HPLC analysis (Inhibition %) low inhibitor concentration” value [1] of the same molecule?
A: 100%

Q: And the “Inhibition of CphEal (in words)” value [2]?
A: totally inhibited; also recorded: total inhibition

Q: Which “HPLC analysis (Inhibition %) high inhibitor concentration” value [1] does the source give for O=S(=O)(F)Cc1ccccc1 [PMSF, Phenylmethylsulfonylfluoride] here?
A: 57%

Q: What about the “HPLC analysis (Inhibition %) low inhibitor concentration” value [1] of the same molecule?
A: 0%

Q: And the “Inhibition of CphEal (in words)” value [2]?
A: largely inhibited; also recorded: strongly inhibited

Q: Which “HPLC analysis (Inhibition %) high inhibitor concentration” value [1] does the source give for Cl.NCCc1ccc(S(=O)(=O)F)cc1 [Pefabloc ®, 4-(2-aminoethyl) benzensulfonylfluoride•HCl] here?
A: 100%

Q: And the “HPLC analysis (Inhibition %) low inhibitor concentration” value [1]?
A: 91%

Q: What about the “Inhibition of CphEal (in words)” value ([2]; listed as Pefabloc) of the same molecule?
A: strongly inhibited

Q: And the “Inhibition of CphEal (in words)” value ([2]; listed as Pefabloc®)?
A: largely inhibited

Q: With NC(N)=NCCC[C@H](NC(=O)C[C@H](N)C(=O)O)C(=O)O [cyanophycin Asp-Arg dipeptides, β-aspartate-arginine] as the molecule, how does the “Absorption by Caco2 cells (HPLC analysis of the medium samples)” value (shortened to “Absorption by Caco2 cells”) [4] read?
A: approximately 60%

Q: Which “Absorption by Caco2 cells” value [4] does the source give for NCCCC[C@H](NC(=O)C[C@H](N)C(=O)O)C(=O)O [cyanophycin Asp-Lys dipeptides, β-aspartate-lysine] here?
A: 68%

Q: With NCCCC[C@H](N)C(=O)O [free L-lysine, L-lysine] as the molecule, how does the “Absorption by Caco2 cells” value [5] read?
A: 51%

Q: What does the source list for N=C(N)NCCC[C@H](N)C(=O)O [free arginine, L-arginine]?
A: Serum GH levels [6]: significant increase; Absorption by Caco2 cells (HPLC analysis of the medium samples) [5]: 41%

Q: With “L-Arginine-L-Aspartate [arginine aspartate]” as the molecule, how does the “Rise in GH during slow wave sleep” value [7] read?
A: 60%

B1: CphB: intracellular cyanophycinase of Synechocystis sp. PCC 6803 (protein, UniProt P73832 2-271, looked up)
Cyanophycinase: PLSSQPAILIIGGAEDKVHGREILQTFWSRSGGNDAIIGIIPSASREPLLIGERYQTIFSDMGVKELKVLDIRDRAQGDDSGYRLFVEQCTGIFMTGGDQLRLCGLLADTPLMDRIRQRVHNGEISLAGTSAGAAVMGHHMIAGGSSGEWPNRALVDMAVGLGIVPEIVVDQHFHNRNRMARLLSAISTHPELLGLGIDEDTCAMFERDGSVKVIGQGTVSFVDARDMSYTNAALVGANAPLSLHNLRLNILVHGEVYHQVKQRAFPRVT
Q: Which results are given for B1?
A: Mechanism (CGP; cell wrapped: Exo-peptidase): Exo-; CGP degradation products (CGP): β-Asp-Arg; Inhibitors (CGP): PMSF, and 3,4-dichloro- and Pefabloc ®,; Optimum pH range (CGP): 7-8^; Optimum temperature (CGP): 35 °C
